Each structure is given as a SMILES string.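 Compound exposure: 48 hours, 5 concentrations, 96-well plates. TGI is the concentration that stops growth completely.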

We go through 21 molecules from PubChem BioAssay (NCI).

For one experiment, the system named is RXF 393 renal. Description: NCI tumour cell line growth inhibition, 48 h.
Molecule `Cc1nc2ccc([N+](=O)[O-])cc2c(=O)n1C(=S)Nc1cccc(Cl)c1` came in with a TGI of 40 µM.

With `Cc1cccc(C[C@@]2(SCc3ccccc3)C(C)(C)[C@@H]3CC[C@@]2(C)C3)n1`, the TGI stood at 30.9 µM.

For `N#Cc1c(OCCF)c2ccccc2n2c1nc1ccccc12`, the TGI was > 100 µM.

`O=C1/C(=C/c2ccc([N+](=O)[O-])cc2)CNC/C1=C\c1ccc([N+](=O)[O-])cc1` yielded a TGI of 25.1 µM.

With `C/C(=N/NC(=S)Nc1cccc(C)c1)c1ccccn1`, the TGI is 3.55 µM.

As to `O=C(O)c1ccc(NS(=O)(=O)Cc2ccccc2)cc1`, the TGI is > 100 µM.

In turn, `O=C1/C(=C/c2ccc(Br)s2)NC(=S)N1CN1CCOCC1` returned a TGI of 59.7 µM.

Take `CC(=O)/C(=C/n1c(=S)sc2ccccc21)C(=O)Nc1ccccc1C`: the TGI is > 100 µM.

Take `Cc1ccc(C2=Nc3c(c(C)nn3-c3ccccc3)N=C(C(=O)O)C2)cc1`: the TGI is > 10 µM.

Regarding `Cc1ccc(C(=O)Nc2ccc(CP(=O)(O)O)cc2)cc1NC(=O)c1cccc(NC(=O)Nc2cccc(C(=O)Nc3cc(C(=O)Nc4ccc(CP(=O)(O)O)cc4)ccc3C)c2)c1`, the TGI is > 100 µM.

As for `CCOC(=O)c1cnc2[nH]ccn2c1=O`, the TGI was > 10 µM.

In turn, `O=C1C(Br)=Cc2c(Cl)sc(Cl)c21` came in with a TGI of 6.17 µM.

The molecule `O=[N+]([O-])C(=C(Sc1ccccc1)Sc1ccccc1)C(Cl)=C(Cl)Cl` had a TGI of 1.99 µM.

As to `NCCCC(N)C(=O)O` (stereo not drawn), the TGI is > 100 µM.

Take `CCOC(=O)C1C(=O)CC(O)(c2ccccc2)C(C(=O)OCC)C1c1ccc(OC)cc1` (stereo not drawn): the TGI amounted to 50.5 µM.

With `COC(=O)CCCC(=O)C(=Nc1c(Cl)cccc1Cl)NNc1ccc(Cl)cc1`, the TGI is > 68.2 µM.

The subject of the next experiment is SK-MEL-2 melanoma. Description: NCI tumour cell line growth inhibition, 48 h.
Turning to `CC(C)(CO)N1C(=O)c2ccccc2C1(O)c1ccc(Cl)cc1` (stereo not drawn), the TGI was > 100 µM.

Take `COC(=O)C1CC(C=[N+](C)C)=C(SC)N1` (stereo not drawn): the TGI was > 100 µM.

For `CN1CN(c2ccccc2)C2(CCN(CCCC3(c4cccs4)OCCO3)CC2)C1=O`, the TGI was > 100 µM.

`Cc1cc(O)cc(O)c1N=Nc1ccc([N+](=O)[O-])cc1` showed a TGI of 75.4 µM.

`O=c1c2cc(I)ccc2[nH]c(=S)n1Cc1ccccc1` showed a TGI of 56 µM.

In turn, `Cc1nc2ccc([N+](=O)[O-])cc2c(=O)n1C(=S)Nc1cccc(Cl)c1` returned a TGI of 23.9 µM.

Molecule `Cc1cccc(C[C@@]2(SCc3ccccc3)C(C)(C)[C@@H]3CC[C@@]2(C)C3)n1` returned a TGI of 27.8 µM.

As for `N#Cc1c(OCCF)c2ccccc2n2c1nc1ccccc12`, the TGI was > 100 µM.

Turning to `O=C1/C(=C/c2ccc([N+](=O)[O-])cc2)CNC/C1=C\c1ccc([N+](=O)[O-])cc1`, the TGI was > 100 µM.

`C/C(=N/NC(=S)Nc1cccc(C)c1)c1ccccn1` showed a TGI of 4.42 µM.

In the case of `O=C(O)c1ccc(NS(=O)(=O)Cc2ccccc2)cc1`, the TGI was > 100 µM.

As for `O=C1/C(=C/c2ccc(Br)s2)NC(=S)N1CN1CCOCC1`, the TGI is > 100 µM.

Regarding `CC(=O)/C(=C/n1c(=S)sc2ccccc21)C(=O)Nc1ccccc1C`, the TGI was > 100 µM.

In the case of `Cc1ccc(C2=Nc3c(c(C)nn3-c3ccccc3)N=C(C(=O)O)C2)cc1`, the TGI is > 10 µM.

Consider `Cc1ccc(C(=O)Nc2ccc(CP(=O)(O)O)cc2)cc1NC(=O)c1cccc(NC(=O)Nc2cccc(C(=O)Nc3cc(C(=O)Nc4ccc(CP(=O)(O)O)cc4)ccc3C)c2)c1`, for which the TGI is > 100 µM.

In the case of `CCOC(=O)c1cnc2[nH]ccn2c1=O`, the TGI was > 10 µM.

With `O=C1C(Br)=Cc2c(Cl)sc(Cl)c21`, the TGI stood at 32.3 µM.

Molecule `O=[N+]([O-])C(=C(Sc1ccccc1)Sc1ccccc1)C(Cl)=C(Cl)Cl` had a TGI of 5.86 µM.

As to `NCCCC(N)C(=O)O` (stereo not drawn), the TGI is > 100 µM.

Consider `CCOC(=O)C1C(=O)CC(O)(c2ccccc2)C(C(=O)OCC)C1c1ccc(OC)cc1` (stereo not drawn), for which the TGI was determined as 77.6 µM.

As to `COC(=O)CCCC(=O)C(=Nc1c(Cl)cccc1Cl)NNc1ccc(Cl)cc1`, the TGI was > 80.3 µM.

The test system of a further experiment is EKVX NSCLC. Description: NCI tumour cell line growth inhibition, 48 h.
Regarding `CC(C)(CO)N1C(=O)c2ccccc2C1(O)c1ccc(Cl)cc1` (stereo not drawn), the TGI is > 100 µM.

`COC(=O)C1CC(C=[N+](C)C)=C(SC)N1` (stereo not drawn): the TGI is > 100 µM.

For `CN1CN(c2ccccc2)C2(CCN(CCCC3(c4cccs4)OCCO3)CC2)C1=O`, the TGI is > 100 µM.

In the case of `Cc1cc(O)cc(O)c1N=Nc1ccc([N+](=O)[O-])cc1`, the TGI came out at 90.8 µM.

As to `O=c1c2cc(I)ccc2[nH]c(=S)n1Cc1ccccc1`, the TGI worked out at 35.4 µM.

On to `Cc1nc2ccc([N+](=O)[O-])cc2c(=O)n1C(=S)Nc1cccc(Cl)c1`, for which the TGI was > 100 µM.

`Cc1cccc(C[C@@]2(SCc3ccccc3)C(C)(C)[C@@H]3CC[C@@]2(C)C3)n1` showed a TGI of 40.2 µM.

With `N#Cc1c(OCCF)c2ccccc2n2c1nc1ccccc12`, the TGI was > 100 µM.

Take `O=C1/C(=C/c2ccc([N+](=O)[O-])cc2)CNC/C1=C\c1ccc([N+](=O)[O-])cc1`: the TGI was found to be 33.9 µM.

In turn, `C/C(=N/NC(=S)Nc1cccc(C)c1)c1ccccn1` displayed a TGI of 2.3 µM.

In the case of `O=C(O)c1ccc(NS(=O)(=O)Cc2ccccc2)cc1`, the TGI was > 100 µM.

With `O=C1/C(=C/c2ccc(Br)s2)NC(=S)N1CN1CCOCC1`, the TGI is > 100 µM.

With `CC(=O)/C(=C/n1c(=S)sc2ccccc21)C(=O)Nc1ccccc1C`, the TGI is > 100 µM.

As for `Cc1ccc(C2=Nc3c(c(C)nn3-c3ccccc3)N=C(C(=O)O)C2)cc1`, the TGI is > 10 µM.

Regarding `Cc1ccc(C(=O)Nc2ccc(CP(=O)(O)O)cc2)cc1NC(=O)c1cccc(NC(=O)Nc2cccc(C(=O)Nc3cc(C(=O)Nc4ccc(CP(=O)(O)O)cc4)ccc3C)c2)c1`, the TGI is > 100 µM.

As to `CCOC(=O)c1cnc2[nH]ccn2c1=O`, the TGI is > 10 µM.

Consider `O=C1C(Br)=Cc2c(Cl)sc(Cl)c21`, for which the TGI amounted to 22.2 µM.

As for `O=[N+]([O-])C(=C(Sc1ccccc1)Sc1ccccc1)C(Cl)=C(Cl)Cl`, the TGI was 5.15 µM.

In the case of `NCCCC(N)C(=O)O` (stereo not drawn), the TGI was > 100 µM.

Take `CCOC(=O)C1C(=O)CC(O)(c2ccccc2)C(C(=O)OCC)C1c1ccc(OC)cc1` (stereo not drawn): the TGI is > 100 µM.

Regarding `COC(=O)CCCC(=O)C(=Nc1c(Cl)cccc1Cl)NNc1ccc(Cl)cc1`, the TGI is > 100 µM.

For another experiment, the system named is SNB-75 CNS. Description: NCI tumour cell line growth inhibition, 48 h.
With `CC(C)(CO)N1C(=O)c2ccccc2C1(O)c1ccc(Cl)cc1` (stereo not drawn), the TGI is > 100 µM.

Turning to `COC(=O)C1CC(C=[N+](C)C)=C(SC)N1` (stereo not drawn), the TGI is > 100 µM.

As to `CN1CN(c2ccccc2)C2(CCN(CCCC3(c4cccs4)OCCO3)CC2)C1=O`, the TGI was > 100 µM.

The molecule `Cc1cc(O)cc(O)c1N=Nc1ccc([N+](=O)[O-])cc1` gave a TGI of 45.6 µM.

In turn, `O=c1c2cc(I)ccc2[nH]c(=S)n1Cc1ccccc1` registered a TGI of 54.4 µM.

For `Cc1nc2ccc([N+](=O)[O-])cc2c(=O)n1C(=S)Nc1cccc(Cl)c1`, the TGI is 40.8 µM.

As for `Cc1cccc(C[C@@]2(SCc3ccccc3)C(C)(C)[C@@H]3CC[C@@]2(C)C3)n1`, the TGI worked out at 34.4 µM.

With `N#Cc1c(OCCF)c2ccccc2n2c1nc1ccccc12`, the TGI was > 100 µM.

`O=C1/C(=C/c2ccc([N+](=O)[O-])cc2)CNC/C1=C\c1ccc([N+](=O)[O-])cc1` displayed a TGI of 17 µM.

Consider `C/C(=N/NC(=S)Nc1cccc(C)c1)c1ccccn1`, for which the TGI was 5.08 µM.
